Test results taken from ChEMBL document CHEMBL1123698, “alpha-Methylproline-containing renin inhibitory peptides: in vivo evaluation in an anesthetized, ganglion-blocked, hog renin infused rat model” (J Med Chem, 1987).
Square brackets hold non-standard residues; d marks the D form. Peptide text beside a SMILES is read from it. * marks the point of attachment. Sta = CC(C)C[C@H](N)[C@@H](O)CC(=O)O; NHCH2(2-pyridyl) = c1ccc(CN*)nc1; αMeP = C[C@@]1(C(=O)O)CCCN1; Boc = CC(C)(C)OC(=O)*

How the values were obtained:
Renin (Sus scrofa) = test: In vitro inhibition against hog renin.
Renin = biological target: T1, Renin (Homo sapiens, UniProt P00797); test: In vitro inhibition against human plasma renin.; type: cell-free
T1 sequence (P00797 whole entry): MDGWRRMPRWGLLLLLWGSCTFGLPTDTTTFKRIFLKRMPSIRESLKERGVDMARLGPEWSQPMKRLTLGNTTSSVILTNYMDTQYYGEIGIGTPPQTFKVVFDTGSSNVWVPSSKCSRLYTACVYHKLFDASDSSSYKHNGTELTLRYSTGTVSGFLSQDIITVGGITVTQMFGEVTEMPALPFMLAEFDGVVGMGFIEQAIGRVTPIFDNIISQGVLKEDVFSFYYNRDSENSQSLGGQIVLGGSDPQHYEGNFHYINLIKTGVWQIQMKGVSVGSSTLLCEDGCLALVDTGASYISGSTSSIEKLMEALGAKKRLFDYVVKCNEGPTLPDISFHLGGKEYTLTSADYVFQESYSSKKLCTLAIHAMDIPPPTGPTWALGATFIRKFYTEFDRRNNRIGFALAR

IC50 (Renin (Sus scrofa)) [nM] | IC50 (Renin) [nM] | SMILES
40 | – | CC[C@H](C)[C@H](NC(=O)[C@@H](NC[C@H](O)[C@H](CC(C)C)NC(=O)[C@H](Cc1c[nH]cn1)N(C)C(=O)[C@H](Cc1ccccc1)NC(=O)[C@@H]1CCCN1C(=O)OC(C)(C)C)C(C)C)C(=O)NCc1ccccn1
– | 43 | CC[C@H](C)[C@H](NC(=O)[C@@H](NC[C@H](CC(C)C)NC(=O)[C@H](Cc1c[nH]cn1)NC(=O)[C@H](Cc1ccccc1)NC(=O)[C@]1(C)CCCN1C(=O)OC(C)(C)C)C(C)C)C(=O)NCc1ccccn1
– | 3.5 | CC[C@H](C)[C@H](NC(=O)C[C@H](O)[C@H](CC(C)C)NC(=O)[C@H](Cc1c[nH]cn1)NC(=O)[C@H](Cc1ccccc1)NC(=O)[C@]1(C)CCCN1C(=O)OC(C)(C)C)C(=O)NCc1ccccn1 (Boc-[αMeP]FH[Sta]I-{NHCH2(2-pyridyl)})
– | 36 | CC[C@H](C)[C@H](NC(=O)C[C@H](O)[C@H](CC(C)C)NC(=O)[C@H](Cc1ccccc1)NC(=O)[C@H](Cc1ccccc1)NC(=O)[C@]1(C)CCCN1C(=O)OC(C)(C)C)C(=O)NCc1ccccn1 (Boc-[αMeP]FF[Sta]I-{NHCH2(2-pyridyl)})
